Experiments:
[1] = pig, in vivo
Description: Twenty-two domestic pigs weighing 15-20 kg were acclimated to lab conditions over 4 days. The pigs were fed a standard pig diet, which followed energetic requirements for these animals (Nutrient Requirements of Swine, 9th, 1998, Subcommittee on Swine Nutrition, National Research Council) and water ad libitum. Animals were randomly assigned into group C [6 pigs, receiving a glucosaline solution (Braun cat No 622647), 5% glucose, 0.9% NaCI], group G [8 pigs, receiving the same glucosaline solution fortified with 8 g/l of Gln, (Sigma cat No G-3126)], and group N [8 pigs, receiving the same glucosaline solution fortified with 10 g/l of NAQ, (Sigma cat No A-9125)]. Before surgery, animals were fasted 15 h. The day of experiment, animals were weighed and anaesthetized using Stresnil® and penthotal. […]
The analysis for N-acetyl-L-glutamine was conducted as follows. […] The detection and quantification of N-acetyl-L-glutamine was monitored at 210 nm.
The analysis for glutamine and glutamate was conducted as follows. […] After 1 minute the sample was diluted to 1 mL and injected into the HPLC system, consisting of a 2690 Separation Module, fluorescence detector and a SupelcoSil LC-18 column (250×4 mm, 3 micrometers). […] The detection and quantification of glutamate and glutamine was accomplished using an excitation wavelength of 250 nm and monitoring emission at 395 nm. […]

[2] = Feeding pig model (absorption as component of diet); format: in vivo
Description: Fifteen pigs, 15-20 kg in weight were provided by a certified farm. The pigs were acclimated to the laboratory for 2 days. A standard pig diet and water was provided ad libitum. After acclimation, the pigs were randomly assigned into group C [5 pigs, receiving a standard pig diet plus 3 g/kg of Cr2O3, (Merck cat No 1.02483)], group G [5 pigs, receiving diet C plus 8 g/kg of Gln, (Ajimoto)], and group N [5 pigs, receiving diet C plus 10.5 g/kg of N-acetyl-L-glutamine, (Flamma)]. During the experimental phase of the study, each group received 1000 grams of their respective diet per day per animal, fed in 3 portions and water was provided ad libitum. This experimental phase of feeding lasted 5 days.
On the day of experiment, animals were weighed and received the standard diet intake (333 g diet per animal) at 7:00 a.m. Three hours after feeding, animals were weighed, sedated and bled through jugular vein puncture. Animals were quickly opened by abdominal medium sagital incision and the content of the duodenum, medium jejunum (about 2 meters from the ligament of Treitz) and ileum (30 cm from the ileocecal valve) were taken, frozen in liquid nitrogen, lyophylized, and stored at −80° C. until analysis. Samples of liver and kidney were removed, dissected of visible fat and connective tissue, quickly frozen in liquid nitrogen and stored at −80° C. until analysis. […]
Intestinal content was analyzed for glutamine, N-acetyl-L-glutamine and chromium (III) oxide. […]
For analysis of glutamine, the lyophilized intestinal content was treated and analyzed as described in the intestinal loop model above.
Chromium was incorporated into the diets to provide a correction factor to reflect content per kg of original diet. […] The absorbance at 372 nm against demineralized water as a blank was determined. The absorbance readings were converted to mg of Cr2O3 by employing the equation of a standard curve prepared by analyzing 0, 50, 100, 200 and 500 microliters of a standard chromium solution (2.9034 g of K2Cr2O7/L, which is equivalent to 1.5 g/L of Cr2O3).

[3] = N-acetyl-L-glutamine diet (55.8 mmole/kg diet), pigs, 3 hours after feeding

CC(=O)N[C@@H](CCC(N)=O)C(=O)O [N-acetyl-L-glutamine]
Glutamine in portal blood, N group versus G group [1]: no significant differences between G and N
N-acetyl-L-glutamine in distal ileum content [2, 3]: 12.8 ± 2.1 mmole/kg original diet
N-acetyl-L-glutamine in medium jejunum content [2, 3]: 10.3 ± 2.4 mmole/kg original diet
Absorption between the medial jejunum and the distal ilium ([2]; pig, in vivo): not observed

Source: patent US20030134851A1, “Methods and compositions for providing glutamine” (priority 2001, published 2003)
